Test results reported in article PMC7441158 (Nature Communications, 2020).

Assays:
VIP receptor 1 (VPAC1) = target: T1, VIP receptor 1 (VPAC1) (Homo sapiens, UniProt P32241); experiment: cAMP assay, COS-7 cells transiently expressing VPAC1; assay type: cell-based; details: for EC50: log(EC50) VPAC1 + VIP, log10 of EC50, COS-7 cells, cAMP, Hill = 1, top constrained to 100%; for % receptor activation at 1µM agonist: VPAC1 + VIP, Suppl. fig 5a source data
T1 sequence (P32241 31-457): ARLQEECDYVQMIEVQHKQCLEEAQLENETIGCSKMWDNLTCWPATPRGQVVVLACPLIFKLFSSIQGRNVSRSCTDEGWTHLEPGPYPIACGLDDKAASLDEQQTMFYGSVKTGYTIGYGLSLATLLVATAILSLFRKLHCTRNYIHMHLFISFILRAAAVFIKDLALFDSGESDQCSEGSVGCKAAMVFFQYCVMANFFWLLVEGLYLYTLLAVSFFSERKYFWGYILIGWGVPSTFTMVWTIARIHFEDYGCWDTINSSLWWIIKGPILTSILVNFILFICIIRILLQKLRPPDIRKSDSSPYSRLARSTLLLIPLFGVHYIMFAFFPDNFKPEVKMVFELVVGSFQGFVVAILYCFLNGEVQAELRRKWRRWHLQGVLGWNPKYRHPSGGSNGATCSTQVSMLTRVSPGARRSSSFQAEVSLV

VIP receptor 2 (VPAC2) = target: T2, VIP receptor 2 (VPAC2) (Homo sapiens, UniProt P41587); experiment: cAMP assay, COS-7 cells transiently expressing VPAC2; assay type: cell-based; details: for % receptor activation at 1µM agonist: VPAC2 + VIP, Suppl. fig 5a source data; for EC50: log(EC50) VPAC 2 + VIP, log10 of EC50, COS-7 cells, cAMP, Hill = 1, top constrained to 100%
T2 sequence (P41587 24-438): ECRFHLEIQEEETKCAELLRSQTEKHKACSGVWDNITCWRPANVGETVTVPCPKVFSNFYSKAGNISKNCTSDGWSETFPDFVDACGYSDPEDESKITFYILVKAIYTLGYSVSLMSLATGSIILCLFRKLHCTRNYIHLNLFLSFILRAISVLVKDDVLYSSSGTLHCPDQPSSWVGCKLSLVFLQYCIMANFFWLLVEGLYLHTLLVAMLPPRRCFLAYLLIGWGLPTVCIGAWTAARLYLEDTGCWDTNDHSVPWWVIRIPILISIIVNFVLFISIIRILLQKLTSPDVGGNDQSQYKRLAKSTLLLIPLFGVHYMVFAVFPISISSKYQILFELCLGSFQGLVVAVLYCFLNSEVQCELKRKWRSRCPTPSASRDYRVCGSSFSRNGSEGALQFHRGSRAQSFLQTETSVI

neprilysin (NEP) = experiment: NEP (R&D Systems) in 50 mM Tris, 0.05% Brij-35, pH 9.0; details: 37 °C, up to 24 h
[1] = independent experiment 1, duplicate determinations
[2] = independent experiment 2, duplicate determinations
[3] = independent experiment 3, duplicate determinations

Compound | EC50 (VIP receptor 1 (VPAC1); [1]) | EC50 (VIP receptor 1 (VPAC1); [2]) | EC50 (VIP receptor 1 (VPAC1); [3]) | Efficacy raw data for Glucagon-receptors, VPAC1 + VIP (VIP receptor 1 (VPAC1); replicate 1) | Efficacy raw data for Glucagon-receptors, VPAC1 + VIP (VIP receptor 1 (VPAC1); replicate 2) | Efficacy raw data for Glucagon-receptors, VPAC1 + VIP (VIP receptor 1 (VPAC1); replicate 3) | % receptor activation at 1µM agonist (VIP receptor 2 (VPAC2); replicate 1) | % receptor activation at 1µM agonist (VIP receptor 2 (VPAC2); replicate 2) | % receptor activation at 1µM agonist (VIP receptor 2 (VPAC2); replicate 3) | % receptor activation at 1µM agonist (VIP receptor 2 (VPAC2); replicate 4) | % receptor activation at 1µM agonist (VIP receptor 2 (VPAC2); replicate 5) | % receptor activation at 1µM agonist (VIP receptor 2 (VPAC2); replicate 6) | EC50 (VIP receptor 2 (VPAC2); [1]) | EC50 (VIP receptor 2 (VPAC2); [2]) | EC50 (VIP receptor 2 (VPAC2); [3]) | Efficacy raw data for Glucagon-receptors, VPAC2 + VIP (VIP receptor 2 (VPAC2); replicate 1) | Efficacy raw data for Glucagon-receptors, VPAC2 + VIP (VIP receptor 2 (VPAC2); replicate 3) | Efficacy raw data for Glucagon-receptors, VPAC2 + VIP (VIP receptor 2 (VPAC2); replicate 2) | also measured
CC[C@H](C)[C@H](NC(=O)[C@H](CO)NC(=O)[C@H](CC(N)=O)NC(=O)[C@H](CC(C)C)NC(=O)[C@H](Cc1ccc(O)cc1)NC(=O)[C@H](CCCCN)NC(=O)[C@H](CCCCN)NC(=O)[C@@H](NC(=O)[C@H](C)NC(=O)[C@H](CCSC)NC(=O)[C@H](CCC(N)=O)NC(=O)[C@H](CCCCN)NC(=O)[C@H](CCCNC(=N)N)NC(=O)[C@H](CC(C)C)NC(=O)[C@H](CCCNC(=N)N)NC(=O)[C@@H](NC(=O)[C@H](Cc1ccc(O)cc1)NC(=O)[C@H](CC(N)=O)NC(=O)[C@H](CC(=O)O)NC(=O)[C@@H](NC(=O)[C@H](Cc1ccccc1)NC(=O)[C@@H](NC(=O)[C@H](C)NC(=O)[C@H](CC(=O)O)NC(=O)[C@H](CO)NC(=O)[C@@H](N)Cc1c[nH]cn1)C(C)C)[C@@H](C)O[C@H]1O[C@H](CO)[C@H](O)[C@H](O[C@@H]2O[C@H](CO)[C@H](O)[C@H](O[C@]3(C(=O)O)C[C@H](O)[C@@H](NC(C)=O)[C@H]([C@H](O)[C@H](O)CO)O3)[C@H]2O)[C@H]1NC(C)=O)[C@@H](C)O)C(C)C)C(=O)N[C@@H](CC(C)C)C(=O)N[C@@H](CC(N)=O)C(N)=O [VIP ST] | 34.1 nM | 116 nM | 162 nM | 91.02 | 112.4 | 93.56 | 68.0% | 68.9% | 66.1% | 69.7% | 54.2% | 49.2% | 378 nM | 596 nM | 946 nM | 72.87 | 74.68 | – | –
CC[C@H](C)[C@H](NC(=O)[C@H](CO)NC(=O)[C@H](CC(N)=O)NC(=O)[C@H](CC(C)C)NC(=O)[C@H](Cc1ccc(O)cc1)NC(=O)[C@H](CCCCN)NC(=O)[C@H](CCCCN)NC(=O)[C@@H](NC(=O)[C@H](C)NC(=O)[C@H](CCSC)NC(=O)[C@H](CCC(N)=O)NC(=O)[C@H](CCCCN)NC(=O)[C@H](CCCNC(=N)N)NC(=O)[C@H](CC(C)C)NC(=O)[C@H](CCCNC(=N)N)NC(=O)[C@@H](NC(=O)[C@H](Cc1ccc(O)cc1)NC(=O)[C@H](CC(N)=O)NC(=O)[C@H](CC(=O)O)NC(=O)[C@@H](NC(=O)[C@H](Cc1ccccc1)NC(=O)[C@@H](NC(=O)[C@H](C)NC(=O)[C@H](CC(=O)O)NC(=O)[C@H](CO)NC(=O)[C@@H](N)Cc1c[nH]cn1)C(C)C)[C@@H](C)O[C@H]1O[C@H](CO)[C@H](O)[C@H](O[C@@H]2O[C@H](CO)[C@H](O)[C@H](O)[C@H]2O)[C@H]1NC(C)=O)[C@@H](C)O)C(C)C)C(=O)N[C@@H](CC(C)C)C(=O)N[C@@H](CC(N)=O)C(N)=O [VIP T] | 18.9 nM | 88.7 nM | 45.8 nM | 95.97 | 106.4 | 107.3 | 72.7% | 72.4% | 74.8% | 68.0% | 58.9% | 52.3% | 202 nM | 422 nM | 718 nM | 75.53 | 67.09 | 106.2 | % receptor activation at 1µM agonist (VIP receptor 1 (VPAC1); replicate 5): 104.2%
CC[C@H](C)[C@H](NC(=O)[C@H](CO)NC(=O)[C@H](CC(N)=O)NC(=O)[C@H](CC(C)C)NC(=O)[C@H](Cc1ccc(O)cc1)NC(=O)[C@H](CCCCN)NC(=O)[C@H](CCCCN)NC(=O)[C@@H](NC(=O)[C@H](C)NC(=O)[C@H](CCSC)NC(=O)[C@H](CCC(N)=O)NC(=O)[C@H](CCCCN)NC(=O)[C@H](CCCNC(=N)N)NC(=O)[C@H](CC(C)C)NC(=O)[C@H](CCCNC(=N)N)NC(=O)[C@@H](NC(=O)[C@H](Cc1ccc(O)cc1)NC(=O)[C@H](CC(N)=O)NC(=O)[C@H](CC(=O)O)NC(=O)[C@@H](NC(=O)[C@H](Cc1ccccc1)NC(=O)[C@@H](NC(=O)[C@H](C)NC(=O)[C@H](CC(=O)O)NC(=O)[C@H](CO)NC(=O)[C@@H](N)Cc1c[nH]cn1)C(C)C)[C@@H](C)O[C@H]1O[C@H](CO)[C@H](O)[C@H](O)[C@H]1NC(C)=O)[C@@H](C)O)C(C)C)C(=O)N[C@@H](CC(C)C)C(=O)N[C@@H](CC(N)=O)C(N)=O [VIP Tn] | 42.6 nM | 207 nM | 101 nM | 102 | 111.1 | 105.8 | 70.4% | 67.4% | 67.0% | 57.3% | 63.7% | 60.1% | 421 nM | 656 nM | 577 nM | 74.75 | 78.02 | 186 | % receptor activation at 1µM agonist (VIP receptor 1 (VPAC1); replicate 4): 82.0%
CC[C@H](C)[C@H](NC(=O)[C@H](CO)NC(=O)[C@H](CC(N)=O)NC(=O)[C@H](CC(C)C)NC(=O)[C@H](Cc1ccc(O)cc1)NC(=O)[C@H](CCCCN)NC(=O)[C@H](CCCCN)NC(=O)[C@@H](NC(=O)[C@H](C)NC(=O)[C@H](CCSC)NC(=O)[C@H](CCC(N)=O)NC(=O)[C@H](CCCCN)NC(=O)[C@H](CCCNC(=N)N)NC(=O)[C@H](CC(C)C)NC(=O)[C@H](CCCNC(=N)N)NC(=O)[C@@H](NC(=O)[C@H](Cc1ccc(O)cc1)NC(=O)[C@H](CC(N)=O)NC(=O)[C@H](CC(=O)O)NC(=O)[C@@H](NC(=O)[C@H](Cc1ccccc1)NC(=O)[C@@H](NC(=O)[C@H](C)NC(=O)[C@H](CC(=O)O)NC(=O)[C@H](CO)NC(=O)[C@@H](N)Cc1c[nH]cn1)C(C)C)[C@@H](C)O)[C@@H](C)O)C(C)C)C(=O)N[C@@H](CC(C)C)C(=O)N[C@@H](CC(N)=O)C(N)=O [VIP non-glycosylated] | – | – | – | – | – | – | 79.5% | 82.6% | 101.8% | 110.5% | 97.7% | 107.3% | – | – | – | – | – | – | –
CC[C@H](C)[C@H](NC(=O)[C@H](CO)NC(=O)[C@H](CC(N)=O)NC(=O)[C@H](CC(C)C)NC(=O)[C@H](Cc1ccc(O)cc1)NC(=O)[C@H](CCCCN)NC(=O)[C@H](CCCCN)NC(=O)[C@@H](NC(=O)[C@H](C)NC(=O)[C@H](CCSC)NC(=O)[C@H](CCC(N)=O)NC(=O)[C@H](CCCCN)NC(=O)[C@H](CCCNC(=N)N)NC(=O)[C@H](CC(C)C)NC(=O)[C@H](CCCNC(=N)N)NC(=O)[C@@H](NC(=O)[C@H](Cc1ccc(O)cc1)NC(=O)[C@H](CC(N)=O)NC(=O)[C@H](CC(=O)O)NC(=O)[C@@H](NC(=O)[C@H](Cc1ccccc1)NC(=O)[C@@H](NC(=O)[C@H](C)NC(=O)[C@H](CC(=O)O)NC(=O)[C@H](CO)NC(=O)[C@@H](N)Cc1c[nH]cn1)C(C)C)[C@@H](C)O)[C@@H](C)O)C(C)C)C(=O)N[C@@H](CC(C)C)C(=O)N[C@@H](CC(N)=O)C(N)=O [VIP, vasoactive intestinal polypeptide, reference compound] | – | – | – | – | – | – | – | – | – | – | – | – | – | – | – | 99.97 | 100 | 100 | –
GWTLNSAGYLLGPHAVGNHRSFSDKNGLTS [Galanin T] | – | – | – | – | – | – | – | – | – | – | – | – | – | – | – | – | – | – | not cleaved (neprilysin (NEP)): −: not susceptible to degradation
